From patent US20230203060A1 (GENFLEET THERAPEUTICS (SHANGHAI) INC., priority 2020, published 2023) come the findings set out here.

Experiment [1] concerns phosphorylated ERK downstream of KRAS G12C in MIA PaCa2 cells. In words: Cell p-ERK detection experiment (HTRF) in MIA PaCa2. The settings on record: Homo sapiens, MIA PaCa-2, 2 h, MIA PaCa2 cells, 2 hours with compound, Advance ERK phospho-T202/Y204 HTRF kit; read-out: p-ERK IC50. The format is cell-based, human. The method, boiled down: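 Phospho-ERK (T202/Y204) measured by HTRF after 30 min lysis and 4 h antibody incubation in MIA PaCa2 (KRAS G12C) cells, seeded at 2.5E4 per well and treated 2 h with compounds in 3.16-fold steps, final DMSO 0.1%. IC50 from a four-parameter fit of percent inhibition relative to DMSO and blank wells.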
A general note: Time-resolved FRET reads energy transfer from a long-lived donor to a nearby acceptor.

The next experiment deals with T1, KRAS G12C (Homo sapiens, UniProt P01116, G12C).
T1 construct: purchased Reactionbiology
Briefly: KRAS G12C NEA-HTRF experiment (SOS1-catalyzed displacement of GDP by GTP). The format is biochemical. The method, boiled down:
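His-tagged KRAS G12C preloaded with DY647-GDP was preincubated 15 min at 20 °C with compound, then exchanged with SOS1 (0.2 μM working solution) and GTP (200 μM working solution) for 2 h at 20 °C in the dark. HTRF 665/615 nm ratio with anti-His-Tb was normalised to T0 and no-compound controls; IC50 by four-parameter fit.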

T1 sequence (P01116 1-188 isoform P01116-2 G12C): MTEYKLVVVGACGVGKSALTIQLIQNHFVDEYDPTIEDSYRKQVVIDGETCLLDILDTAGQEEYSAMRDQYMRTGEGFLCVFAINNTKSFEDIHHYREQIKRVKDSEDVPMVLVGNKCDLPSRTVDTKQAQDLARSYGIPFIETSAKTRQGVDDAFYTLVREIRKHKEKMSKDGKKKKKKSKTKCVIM

The IC50 is the concentration that gives 50% inhibition. In the case of `C=CC(=O)N1CCN2C(=O)c3c(N4CC(N(C)CC(F)(F)F)CC4(C)C)nc(-c4ccccc4F)c(Cl)c3OC[C@H]2C1` (mixture of isomers) [Z491a, (6aR)-8-acryloyl-4-chloro-1-(2,2-dimethyl-4-(methyl(2,2,2-trifluoroethyl)amino)pyrrolidin-1-yl)-3-(2-fluorophenyl)-6,6a,7,8,9,10-hexahydro-12H-pyrazino[2,1-c]pyrido[3,4-f][1,4]oxazepin-12-one], the IC50 in experiment [1] was determined as 37 nM; on KRAS G12C it was 15 nM. For `C=CC(=O)N1CCN2C(=O)c3c(N4C[C@H](N(C)CCOC)CC4(C)C)nc(-c4ccccc4F)c(Cl)c3OC[C@H]2C1` (single isomer, unassigned) [Z406-1] the same measures were 73 nM and 31 nM. The corresponding values for `C=CC(=O)N1CCN2C(=O)c3c(N4C[C@@H](O)CC4(C)C)nc(-c4ccccc4F)c(F)c3OC[C@H]2C1` (single isomer, unassigned) [Z408-1] are 305 nM and 159 nM. The corresponding values for `C=CC(=O)N1CCN2C(=O)c3c(N4CC(O)CC4(C)C)nc(-c4c(F)cccc4OC)c(F)c3OC[C@H]2C1` (single isomer, unassigned) [Z450] are 141 nM and 147 nM.

With `C=CC(=O)N1CCN2C(=O)c3c(N4CC(N(C)C)CC4(C)C)nc(-c4ccccc4F)c(Cl)c3OC[C@H]2C1` (single isomer, unassigned) [Z453-2], the IC50 is 168 nM in experiment [1] and 120 nM at KRAS G12C. For `C=CC(=O)N1CCN2C(=O)c3c(N4C[C@@H](N5CCN(C)CC5)CC4(C)C)nc(-c4ccccc4F)c(Cl)c3OC[C@H]2C1` (single isomer, unassigned) [Z454-1] the same measures were 13 nM and 9.3 nM.

On to `C=CC(=O)N1CCN2C(=O)c3c(N4C[C@H](N5CCN(C)CC5)CC4(C)C)nc(-c4ccccc4F)c(Cl)c3OC[C@H]2C1` (single isomer, unassigned) [Z454-2], for which the IC50 in experiment [1] was 67 nM; on KRAS G12C, 35.5 nM.

In the case of `C=CC(=O)N1CCN2C(=O)c3c(N4C[C@@H](C(=O)O)CC4(C)C)nc(-c4c(O)cccc4F)c(Cl)c3OC[C@H]2C1` (single isomer, unassigned) [Z458-1], the IC50 in experiment [1] amounted to 3560 nM; at KRAS G12C, 8.8 nM.

`C=CC(=O)N1CCN2C(=O)c3c(N4CCN(C)[C@@H](C)[C@H]4C)nc(-c4ccccc4F)c(Cl)c3OC[C@H]2C1` (single isomer, unassigned) [Z465-1]: the values for the IC50 (in experiment [1]; at KRAS G12C) were 137 nM and 144 nM, respectively.

Consider `C=CC(=O)N1CCN2C(=O)c3c(N4CC(N5CCOCC5)CC4(C)C)nc(-c4ccccc4F)c(Cl)c3OC[C@H]2C1` (single isomer, unassigned) [Z468-1], for which the half-inhibitory concentration (IC50) worked out at 82 nM in experiment [1] and 35 nM on KRAS G12C. The corresponding values for `C=CC(=O)N1CCN2C(=O)c3c(N4C[C@@H](N5CCN(C)CC5)CC4(C)C)nc(-c4c(O)cccc4F)c(Cl)c3OC[C@H]2C1` (single isomer, unassigned) [Z469-1] are 8 nM and 5 nM. For `C=CC(=O)N1CCN2C(=O)c3c(N4C[C@H](N5CCN(C)CC5)CC4(C)C)nc(-c4c(O)cccc4F)c(Cl)c3OC[C@H]2C1` (single isomer, unassigned) [Z469-2], the IC50 in experiment [1] came out at 30 nM; on KRAS G12C it was 18 nM. Regarding `C=CC(=O)N1CCN2C(=O)c3c(N4C[C@@H](N5CCC5)CC4(C)C)nc(-c4ccccc4F)c(Cl)c3OC[C@H]2C1` (single isomer, unassigned) [Z471-1], the IC50 in experiment [1] turned out to be 188 nM; on KRAS G12C it was 73 nM.

On to `C=CC(=O)N1CCN2C(=O)c3c(N4C[C@H](N5CCC5)CC4(C)C)nc(-c4ccccc4F)c(Cl)c3OC[C@H]2C1` (single isomer, unassigned) [Z471-2], for which the half-inhibitory concentration (IC50) in experiment [1] came to 1080 nM; at KRAS G12C, 461 nM. On to `C=CC(=O)N1CCN2C(=O)c3c(N4C[C@@H](N(C)C)CC4(C)C)nc(-c4cccc(C)c4F)c(Cl)c3OC[C@H]2C1` (single isomer, unassigned) [Z472-1], for which the IC50 in experiment [1] stood at 189 nM; at KRAS G12C it was 145 nM. The corresponding values for `C=CC(=O)N1CCN2C(=O)c3c(N4C[C@H](N(C)C)CC4(C)C)nc(-c4cccc(C)c4F)c(Cl)c3OC[C@H]2C1` (single isomer, unassigned) [Z472-2] are 108 nM and 60 nM. For `C=CC(=O)N1CCN2C(=O)c3c(N4CC(N(C)C)CC4(C)C)nc(-c4cccc(F)c4F)c(Cl)c3OC[C@H]2C1` (single isomer, unassigned) [Z473-2] the same measures were 161 nM and 76.8 nM. Compound `C=CC(=O)N1CCN2C(=O)c3c(N[C@H](C)c4ccccc4)nc(-c4c(O)cccc4F)c(Cl)c3OC[C@H]2C1` [Z28, (6aR)-8-acryloyl-4-chloro-3-(2-fluoro-6-hydroxyphenyl)-1-(((R)-1-phenylethyl)amino)-6,6a,7,8,9,10-hexahydro-12H-pyrazino[2,1-c]pyrido[3,4-f][1,4]oxazepin-12-one] showed an IC50 on KRAS G12C of 113 nM. Consider `C=CC(=O)N1CCN2C(=O)c3c(N4CCC5CC54)nc(-c4c(O)cccc4F)c(Cl)c3OC[C@H]2C1` (stereo partly drawn) [Z39, (6aR)-8-acryloyl-1-(2-azabicyclo[3.1.0]hexart-2-yl)-4-chloro-3-(2-fluoro-6-hydroxyphenyl)-6,6a,7,8,9,10-hexahydro-12H-pyrazino[2,1-c]pyrido[3,4-f][1,4]oxazepin-12-one], for which the IC50 in experiment [1] worked out at 140 nM. In the case of `C=CC(=O)N1CCN2C(=O)c3c(NC45CC(C4)C5)nc(-c4c(O)cccc4F)c(Cl)c3OC[C@H]2C1` [Z41, (6aR)-8-acryloyl-1-(bicyclo [1.1.1]pentan-1-ylamino)-4-chloro-3-(2-fluoro-6-hydroxyphenyl)-6,6a,7,8,9,10-hexahydro-12H-pyrazino[2,1-c]pyrido[3,4-f][1,4]oxazepin-12-one], the IC50 in experiment [1] turned out to be 322 nM. The compound `C=CC(=O)N1CCN2C(=O)c3c(OC4CCCN(C)C4)nc(-c4c(O)cccc4F)c(Cl)c3OC[C@H]2C1` (stereo partly drawn) [Z43, (6aR)-8-acryloyl-4-chloro-3-(2-fluoro-6-hydroxyphenyl)-1-((1-methylpiperidin-3-yl)oxy)-6,6a,7,8,9,10-hexahydro-12H-pyrazino[2,1-c]pyrido[3,4-f][1,4]oxazepin-12-one] returned a 50% inhibitory concentration (IC50) on KRAS G12C of 171 nM.

`C=CC(=O)N1CCN2C(=O)c3c(N4CCC[C@H]4C)nc(-c4c(O)cccc4F)c(Cl)c3OC[C@H]2C1` [Z48, (6aR)-8-acryloyl-1-((R)-2-methylpyrrolidin-1-yl)-4-chloro-3-(2-fluoro-6-hydroxyphenyl)-6,6a,7,8,9,10-hexahydro-12H-pyrazino[2,1-c]pyrido[3,4-f][1,4]oxazepin-12-one] yielded a 50% inhibitory concentration (IC50) on KRAS G12C of 150 nM.

The compound `C=CC(=O)N1CCN2C(=O)c3c(N4CCN(C)C[C@@H]4C)nc(C#CC)c(Cl)c3OC[C@H]2C1` [Z459, (R)-8-acryloyl-4-chloro-1-((S)-2,4-dimethylpiperazin-1-yl)-3-(prop-1-yn-1-yl)-6,6a,7,8,9,10-hexahydro-12H-pyrazino[2,1-c]pyrido[3,4-f][1,4]oxazepin-12-one] returned an IC50 at KRAS G12C of 9410 nM. On the same count and under the same terms, in the case of `C=CC(=O)N1CCN2C(=O)c3c(N4CCN(C)C[C@@H]4C)nc(-c4ccccc4Cl)c(Cl)c3OC[C@H]2C1` [Z461, (R)-8-acryloyl-4-chloro-3-(2-chlorophenyl)-1-((S)-2,4-dimethylpiperazin-1-yl)-6,6a,7,8,9,10-hexahydro-12H-pyrazino[2,1-c]pyrido[3,4-f][1,4]oxazepin-12-one] it was 331 nM.
